Results taken from PMC9352109, “Novel silkworm (Bombyx mori) sulfotransferase swSULT ST3 is involved in metabolism of polyphenols from mulberry leaves” (PLoS ONE, 2022).

These compounds were tested against T1, AKR2E8 (Bombyx mori, UniProt A0A8D5RRY4) (assay: NADPH-linked benzaldehyde reduction). Details: 0.1 mM NADPH, 25 μM benzaldehyde, 0.1 M potassium phosphate pH 7.4.
T1 sequence (A0A8D5RRY4 1-331 limits assumed): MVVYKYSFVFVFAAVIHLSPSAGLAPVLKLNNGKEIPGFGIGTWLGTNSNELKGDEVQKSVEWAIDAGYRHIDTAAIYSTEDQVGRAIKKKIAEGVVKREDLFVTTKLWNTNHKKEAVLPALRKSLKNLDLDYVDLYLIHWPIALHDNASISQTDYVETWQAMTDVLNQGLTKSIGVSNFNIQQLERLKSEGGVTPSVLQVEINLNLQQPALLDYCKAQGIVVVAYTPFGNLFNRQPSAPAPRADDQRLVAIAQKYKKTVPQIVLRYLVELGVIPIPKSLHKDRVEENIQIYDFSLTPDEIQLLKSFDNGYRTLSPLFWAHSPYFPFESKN
Format: biochemical
Description: NADPH-linked benzaldehyde reduction on AKR2E8

| Compound | IC50 |
| --- | --- |
| O=c1cc(-c2ccc(O)cc2)oc2cc(O)cc(O)c12 [Apigenin] | 170 ± 10 nM |
| O=c1c(-c2ccc(O)cc2)coc2cc(O)ccc12 [Daidzein] | 34 ± 2.7 nM |
| O=c1c(O)c(-c2ccc(O)c(O)c2)oc2cc(O)cc(O)c12 [Quercetin] | 65 ± 1.8 nM |

Now from value to compound:

| IC50 | Compound |
| --- | --- |
| 18 ± 1.4 nM | O=c1c(-c2ccc(O)cc2)coc2cc(O)cc(O)c12 [Genistein] |
| 460 ± 120 nM | O=c1c(O)c(-c2ccc(O)cc2)oc2cc(O)cc(O)c12 [Kaempferol] |
| 550 ± 23 nM | Oc1ccc(/C=C/c2cc(O)cc(O)c2)cc1 [Resveratrol] |
